Test results taken from PubChem BioAssay (NCI).
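Where inhibition never reached the appropriate level, the endpoint shown equals the highest concentration tested. Otherwise, values were interpolated linearly from a five-concentration, 48-hour dose response in 96-well plates. At the TGI there is no net growth.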

What was measured:
Assay in all cases: inhibition of tumour cell growth, NCI panel, 48 h
OVCAR-8 ovarian = system: OVCAR-8 ovarian
U251 CNS = system: U251 CNS
SW-620 colon = system: SW-620 colon
HCT-15 colon = system: HCT-15 colon
IGROV1 ovarian = system: IGROV1 ovarian
KM12 colon = system: KM12 colon
M14 melanoma = system: M14 melanoma
EKVX NSCLC = system: EKVX NSCLC
MALME-3M melanoma = system: MALME-3M melanoma
SNB-75 CNS = system: SNB-75 CNS

Row | Structure (SMILES) | TGI (OVCAR-8 ovarian) [µM] | TGI (U251 CNS) [µM] | TGI (SW-620 colon) [µM] | TGI (HCT-15 colon) [µM] | TGI (IGROV1 ovarian) [µM] | TGI (KM12 colon) [µM] | TGI (M14 melanoma) [µM] | TGI (EKVX NSCLC) [µM] | TGI (MALME-3M melanoma) [µM] | TGI (SNB-75 CNS) [µM]
1 | Oc1ccc(-c2nc3cc(F)ccc3s2)cc1 | > 100 | 42.6 | > 100 | 68.2 | 43.4 | 52.5 | 47.6 | 38 | 43.3 | 
2 | Cc1c2cc[n+](C)cc2c(C)c2c1oc1ccccc12 | 29.8 | 3.37 | 51.4 | > 100 | 52.6 | 11.6 | 31.5 | > 42.3 | 3.99 | 5.49
3 | c1c2c(cc3c1OCO3)-c1cc3ccc4c(c3c[n+]1CC2)OCO4 | 4.13 | > 11.4 | > 12.5 | 4.77 | > 12.5 | > 5.45 | 5.9 | > 12.5 | 3.04 | > 8.5
4 | Cc1[nH]n(-c2ccccc2)c(=O)c1C(N(CCc1ccccc1)C1=NCC(C)S1)(C(F)(F)F)C(F)(F)F (stereo not drawn) |  | 31.2 | 95.3 | 41.1 |  | > 100 | 32.2 | 36.4 | 97.9 | 50.1
5 | CC1CC(Br)C(=O)O1 (stereo not drawn) | > 100 | > 100 | > 100 | > 100 | > 100 | > 100 | > 100 | > 100 | > 100 | > 100
6 | O=C1OC2(OC2c2ccc(Cl)cc2)c2ccccc21 (stereo not drawn) | > 100 |  | > 100 | > 100 | > 100 | > 100 | > 100 | > 100 | > 100 | > 100
7 | CCO[C@]12CCC[C@H]1[C@@H]1C(=O)c3ccccc3C(=O)C1=C(C)O2 | > 100 | > 100 | > 100 | > 100 | > 100 | > 100 | > 100 | > 100 | > 100 | > 100
8 | CSc1ccc(/C=C2\N=C(c3ccccc3)N(/N=C3\C(=O)Nc4ccccc43)C2=O)cc1 | > 100 | > 100 | > 100 | > 100 | > 100 | > 100 | > 100 | > 100 | > 100 | > 100
9 | COc1ccc2c(c1)/C(=C\c1c(Cl)n(-c3ccccc3)c3ccccc13)C(=O)N2 | > 100 | 38.5 | > 100 | 25.3 | 27.9 | 14.7 | 15 | 57.5 | 19.3 | 52.2
10 | COc1cc([N+](=O)[O-])ccc1NC(=O)c1cccc([N+](=O)[O-])c1O | > 100 | > 100 | > 100 | > 100 | > 100 | > 100 | > 100 | 78.8 | 63.5 | 70.5
11 | Nc1nc(OCC2CCCCC2)c2[nH]cnc2n1 | > 100 | > 73.7 | > 100 | > 100 | > 48.6 | > 100 | 57.8 | 61.9 | > 50.4 | > 81
12 | CC1(C=O)CCC23COC4(CCC5C6(C)CCC(OC7OCC(OC8OC(CO)C(O)C(OC9OC(CO)C(O)C(O)C9O)C8OC8OCC(O)C(O)C8O)C(O)C7OC7OC(CO)C(O)C(O)C7O)C(C)(C)C6CCC5(C)C4(C)CC2O)C3C1 (stereo not drawn) | 1.48 | > 100 | 3.14 | 2.86 | 2.88 | 1.42 | 2.85 | 2.89 |  | 2.51
13 | COC(=O)/C=C1\CCCN1CCc1cc2c(cc1CC#N)OCO2 | > 100 | > 100 | > 100 | > 100 | > 100 | > 100 | > 100 | > 100 | > 100 | 66.8
14 | CCOC(=O)Nc1cc2c(c(N)n1)N=C(c1ccc3ccccc3c1)CN2 | 10.8 | > 100 | 31.4 | > 100 | > 100 | 3.94 | 17.5 | > 100 | 19.3 | 
15 | Cc1ccc(N=NC(C2=NC(=O)CS2)c2nc3ccccc3[nH]2)cc1 (stereo not drawn) | > 100 | > 100 | > 100 | > 100 | > 100 | > 100 | > 100 | > 100 | > 100 | > 100
16 | Cc1ccc([N+](=O)[O-])cc1S(=O)(=O)Nc1ccc(C2=NOC(c3ccccc3O)C2)cc1 (stereo not drawn) | > 100 |  | > 100 | 85.3 | > 100 | 38.2 | 6.85 | > 100 | > 100 | 55.2
